For one experiment, the target named is T1, human TLR9 (Homo sapiens, UniProt Q9NR96).
T1 construct: host or cells: HEK-Blue cells
T1 sequence (Q9NR96 26-1032): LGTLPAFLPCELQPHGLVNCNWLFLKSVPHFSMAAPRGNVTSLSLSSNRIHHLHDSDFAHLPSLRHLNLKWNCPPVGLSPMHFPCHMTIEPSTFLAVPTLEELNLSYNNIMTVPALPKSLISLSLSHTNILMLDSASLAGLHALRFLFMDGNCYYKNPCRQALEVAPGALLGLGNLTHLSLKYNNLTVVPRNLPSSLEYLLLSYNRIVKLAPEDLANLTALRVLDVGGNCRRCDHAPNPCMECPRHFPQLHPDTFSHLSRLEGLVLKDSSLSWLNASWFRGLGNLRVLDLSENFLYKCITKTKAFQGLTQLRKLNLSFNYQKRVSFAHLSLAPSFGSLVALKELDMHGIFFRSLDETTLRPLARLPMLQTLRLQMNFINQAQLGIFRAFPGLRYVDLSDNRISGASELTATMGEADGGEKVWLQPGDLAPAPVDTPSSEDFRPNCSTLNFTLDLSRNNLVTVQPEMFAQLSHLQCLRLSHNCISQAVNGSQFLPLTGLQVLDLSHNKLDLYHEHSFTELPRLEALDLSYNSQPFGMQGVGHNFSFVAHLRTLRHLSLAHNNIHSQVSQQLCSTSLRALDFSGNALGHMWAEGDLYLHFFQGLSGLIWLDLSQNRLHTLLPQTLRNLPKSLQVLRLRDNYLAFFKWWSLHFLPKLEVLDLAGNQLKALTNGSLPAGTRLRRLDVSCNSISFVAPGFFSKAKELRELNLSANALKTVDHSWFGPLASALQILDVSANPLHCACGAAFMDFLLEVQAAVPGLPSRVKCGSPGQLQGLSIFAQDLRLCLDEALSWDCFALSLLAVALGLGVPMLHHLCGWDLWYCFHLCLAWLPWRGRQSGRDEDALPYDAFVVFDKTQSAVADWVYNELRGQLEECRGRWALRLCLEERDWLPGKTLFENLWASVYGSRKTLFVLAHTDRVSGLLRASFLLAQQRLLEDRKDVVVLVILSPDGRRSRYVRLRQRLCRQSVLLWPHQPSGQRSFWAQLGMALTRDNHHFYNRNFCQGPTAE
Kind of experiment: TLR9 inhibition reporter assay (HEK-Blue SEAP). The conditions noted are these: HEK-Blue cells overexpressing human TLR9, ODN2006 5 nM, 22 hour incubation. It counts as cell-based. The method, boiled down:
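Screening used HEK-Blue cells overexpressing one human TLR (7, 8 or 9) and an IFN-β minimal promoter–NF-κB/AP-1 SEAP construct. Stimulation lasted 22 h at 37 °C with receptor-specific agonist: gardiquimod, R848 or ODN2006 at 7.5 μM, 15.9 μM and 5 nM.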
A general note: Reporter assays use an easily measured gene product as a stand-in for the process of interest.

Another experiment deals with T2, human TLR7 (Homo sapiens, UniProt Q9NYK1).
T2 construct: host or cells: HEK-Blue cells
T2 sequence (Q9NYK1 27-1049): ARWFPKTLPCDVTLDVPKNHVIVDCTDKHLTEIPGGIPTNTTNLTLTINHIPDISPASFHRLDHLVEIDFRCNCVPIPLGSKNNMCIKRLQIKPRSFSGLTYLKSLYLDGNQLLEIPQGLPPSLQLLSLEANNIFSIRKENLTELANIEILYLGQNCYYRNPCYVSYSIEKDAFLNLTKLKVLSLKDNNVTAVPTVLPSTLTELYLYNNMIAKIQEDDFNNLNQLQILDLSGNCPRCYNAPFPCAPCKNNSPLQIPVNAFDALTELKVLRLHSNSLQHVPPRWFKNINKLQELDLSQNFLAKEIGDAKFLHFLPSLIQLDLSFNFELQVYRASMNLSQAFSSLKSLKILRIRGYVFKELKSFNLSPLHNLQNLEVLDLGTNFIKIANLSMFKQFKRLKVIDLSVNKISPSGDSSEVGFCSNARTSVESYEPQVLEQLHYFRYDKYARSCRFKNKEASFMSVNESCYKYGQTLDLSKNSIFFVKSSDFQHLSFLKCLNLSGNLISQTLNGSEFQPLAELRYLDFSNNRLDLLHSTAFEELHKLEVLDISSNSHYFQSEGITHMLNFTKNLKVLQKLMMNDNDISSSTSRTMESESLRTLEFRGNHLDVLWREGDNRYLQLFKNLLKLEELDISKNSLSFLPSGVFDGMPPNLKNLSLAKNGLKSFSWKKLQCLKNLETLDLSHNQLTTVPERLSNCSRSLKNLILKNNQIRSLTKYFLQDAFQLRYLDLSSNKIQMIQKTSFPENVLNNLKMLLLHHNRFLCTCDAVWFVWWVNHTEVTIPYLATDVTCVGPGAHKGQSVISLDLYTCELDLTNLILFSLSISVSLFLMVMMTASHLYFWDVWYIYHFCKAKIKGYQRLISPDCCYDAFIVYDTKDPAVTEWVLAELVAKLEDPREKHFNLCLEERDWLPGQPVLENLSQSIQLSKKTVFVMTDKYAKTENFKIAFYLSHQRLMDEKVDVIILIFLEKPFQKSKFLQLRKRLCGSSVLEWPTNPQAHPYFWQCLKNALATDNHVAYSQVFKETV
Nature of the experiment: TLR7 inhibition reporter assay (HEK-Blue SEAP). It counts as cell-based. The following applies: HEK-Blue cells overexpressing human TLR7, gardiquimod 7.5 μM, 22 hour incubation. The method, boiled down: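 Dose-response testing from 0.05 nM to 50 μM final was done on reporter cells for 22 hours at 37° C. Secreted SEAP was then detected, and inhibition was calculated as percent reduction of the agonist-plus-DMSO signal compared with wells given a known inhibitor.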

As usually defined, the IC50 is the concentration that inhibits the measured activity by half.

In the case of `COc1cc(-c2cc3[nH]c(=O)n([C@H]4CC[C@H](N(C)C)CC4)c3cc2C(C)C)cn2ncnc12` [Example 202, 1-((1r,4r)-4-(dimethylamino)cyclohexyl)-6-isopropyl-5-(8-methoxy-[1,2,4]triazolo[1,5-a]pyridin-6-yl)-1,3-dihydro-2H-benzo[d]imidazol-2-one], the IC50 was 23000 nM against human TLR9 and 3.51 nM at human TLR7.

`COc1cc(-c2cc3[nH]c(=O)n([C@@H]4CCCN(CCC(C)(C)C)C4)c3cc2C(C)C)cn2ncnc12` [Example 210, (R)-1-(1-(3,3-dimethylbutyl)piperidin-3-yl)-6-isopropyl-5-(8-methoxy-[1,2,4]triazolo[1,5-a]pyridin-6-yl)-1,3-dihydro-2H-benzo[d]imidazol-2-one]: the IC50 was 2360 nM on human TLR9 and 2.86 nM on human TLR7.

With `CCc1cc2c(cc1-c1cc(OC)c3ncnn3c1)[nH]c(=O)n2[C@@H]1CCCN(CCC(F)(F)F)C1` [Example 183, (R)-6-ethyl-5-(8-methoxy-[1,2,4]triazolo[1,5-a]pyridin-6-yl)-1-(1-(3,3,3-trifluoropropyl)piperidin-3-yl)-1,3-dihydro-2H-benzo[d]imidazol-2-one], the figures for the IC50 against human TLR9 and at human TLR7 were 33500 nM and 12.2 nM, respectively.

Regarding `COc1cc(-c2cc3[nH]c(=O)n([C@H]4CC[C@H](NC5CCN(C(C)C)CC5)CC4)c3cc2C(C)C)cn2ncnc12` [Example 207, 6-isopropyl-1-((1r,4r)-4-((1-isopropylpiperidin-4-yl)amino)cyclohexyl)-5-(8-methoxy-[1,2,4]triazolo[1,5-a]pyridin-6-yl)-1,3-dihydro-2H-benzo[d]imidazol-2-one], the IC50 at human TLR9 is 4630 nM; against human TLR7, 23.9 nM.

Turning to `CCc1cc2c(cc1-c1cc(OC)c3ncnn3c1)[nH]c(=O)n2[C@@H]1CCCN(C(=O)CN(C)C)C1` [Example 228, (R)-1-(1-(dimethylglycyl)piperidin-3-yl)-6-ethyl-5-(8-methoxy-[1,2,4]triazolo[1,5-a]pyridin-6-yl)-1,3-dihydro-2H-benzo[d]imidazol-2-one], the IC50 on human TLR9 was 14100 nM; at human TLR7, 34.9 nM.

Consider `Cc1c(-c2cc3[nH]c(=O)n([C@H]4CC[C@@H](NCC(C)(C)C)CC4)c3cc2C(C)C)cn2ncnc2c1C` [Example 190, 5-(7,8-dimethyl-[1,2,4]triazolo[1,5-a]pyridin-6-yl)-6-isopropyl-1-((1s,4s)-4-(neopentylamino)cyclohexyl)-1,3-dihydro-2H-benzo[d]imidazol-2-one], for which the values for the IC50 against human TLR9 and against human TLR7 were 5050 nM and 5.72 nM, respectively.

In the case of `COCCN1CCC[C@H](n2c(=O)[nH]c3cc(-c4cc(OC)c5ncnn5c4)c(C(C)C)cc32)C1` [Example 221, (S)-6-isopropyl-5-(8-methoxy-[1,2,4]triazolo[1,5-a]pyridin-6-yl)-1-(1-(2-methoxyethyl)piperidin-3-yl)-1,3-dihydro-2H-benzo[d]imidazol-2-one], the IC50 was found to be 20600 nM against human TLR9 and 11.3 nM against human TLR7.

On to `COCCN1CCC[C@@H](n2c(=O)[nH]c3cc(-c4cc(OC)c5ncnn5c4)c(C(C)C)cc32)C1` [Example 226, (R)-6-isopropyl-5-(8-methoxy-[1,2,4]triazolo[1,5-a]pyridin-6-yl)-1-(1-(2-methoxyethyl)piperidin-3-yl)-1,3-dihydro-2H-benzo[d]imidazol-2-one], for which the IC50 on human TLR9 was determined as 14200 nM; on human TLR7 it was 1.13 nM.

Regarding `CCc1cc2c(cc1-c1cc(OC)c3ncnn3c1)[nH]c(=O)n2[C@@H]1CCCN(CC2CCOCC2)C1` [Example 175, (R)-6-ethyl-5-(8-methoxy-[1,2,4]triazolo[1,5-a]pyridin-6-yl)-1-(1-((tetrahydro-2H-pyran-4-yl)methyl)piperidin-3-yl)-1,3-dihydro-2H-benzo[d]imidazol-2-one], the IC50 against human TLR9 was found to be 7390 nM; on human TLR7, 0.83 nM.

In the case of `COc1cc(-c2cc3[nH]c(=O)n(C4CCC(N5CC(O)(C(F)(F)F)C5)CC4)c3cc2C(C)C)cn2ncnc12` (single isomer, unassigned) [Example 242, 1-(4-(3-hydroxy-3-(trifluoromethyl)azetidin-1-yl)cyclohexyl)-6-isopropyl-5-(8-methoxy-[1,2,4]triazolo[1,5-a]pyridin-6-yl)-1,3-dihydro-2H-benzo[d]imidazol-2-one], the IC50 at human TLR9 was found to be 23700 nM; on human TLR7 it was 10.4 nM.

Consider `CCc1cc2c(cc1-c1cc(OC)c3ncnn3c1)[nH]c(=O)n2[C@@H]1CCCN(C(C)C)C1` [Example 172, (R)-6-ethyl-1-(1-isopropylpiperidin-3-yl)-5-(8-methoxy-[1,2,4]triazolo[1,5-a]pyridin-6-yl)-1,3-dihydro-2H-benzo[d]imidazol-2-one], for which the IC50 at human TLR9 came out at 6830 nM; on human TLR7, 1.45 nM.

In the case of `Cc1c(-c2cc3[nH]c(=O)n([C@H]4CC[C@@H](N(C)C)CC4)c3cc2C(C)C)cn2ncnc2c1C` [Example 185, 5-(7,8-dimethyl-[1,2,4]triazolo[1,5-a]pyridin-6-yl)-1-((1s,4s)-4-(dimethylamino)cyclohexyl)-6-isopropyl-1,3-dihydro-2H-benzo[d]imidazol-2-one], the figures for the concentration for half-maximal inhibition (IC50) at human TLR9 and on human TLR7 were 7070 nM and 3.39 nM, respectively.

Turning to `COc1cc(-c2cc3[nH]c(=O)n([C@@H]4CCCN(CC5CCCC5)C4)c3cc2C(C)C)cn2ncnc12` [Example 211, (R)-1-(1-(cyclopentylmethyl)piperidin-3-yl)-6-isopropyl-5-(8-methoxy-[1,2,4]triazolo[1,5-a]pyridin-6-yl)-1,3-dihydro-2H-benzo[d]imidazol-2-one], the values for the IC50 against human TLR9 and against human TLR7 were 2980 nM and 0.05 nM, respectively.

For the compound `COc1cc(-c2cc3[nH]c(=O)n([C@H]4CC[C@H](N(CC5CC5)CC5CC5)CC4)c3cc2C(C)C)cn2ncnc12` [Example 206, 1-((1r,4s)-4-(bis(cyclopropylmethyl)amino)cyclohexyl)-6-isopropyl-5-(8-methoxy-[1,2,4]triazolo[1,5-a]pyridin-6-yl)-1,3-dihydro-2H-benzo[d]imidazol-2-one], the figures for the IC50 at human TLR9 and at human TLR7 were 6530 nM and 1.3 nM, respectively.

In the case of `COc1cc(-c2cc3[nH]c(=O)n([C@H]4CC[C@@H](NC5CCOCC5)CC4)c3cc2C(C)C)cn2ncnc12` [Example 193, 6-isopropyl-5-(8-methoxy-[1,2,4]triazolo[1,5-a]pyridin-6-yl)-1-((1s,4s)-4-((tetrahydro-2H-pyran-4-yl)amino)cyclohexyl)-1,3-dihydro-2H-benzo[d]imidazol-2-one], the figures for the IC50 at human TLR9 and at human TLR7 were 21400 nM and 2.22 nM, respectively.

The values are drawn from patent US12187723B2 (BRISTOL-MYERS SQUIBB COMPANY, priority 2019, dated 2025).
